Laboratory results: patent publication US20080076166A1, “Method For Producing Polyunsaturated Fatty Acids In Transgenic Organisms” (priority 2004, published 2008)
Where two headings read alike, the source gives them in different places.

Key:
[1] = system: desaturase OtDes6.1 (Δ6-desaturase); type: cell-based, Ostreococcus tauri; settings: for Activity in %: yeast transformed with pYES2-OtDes6.1, conversion rate [substrate/(substrate+product)*100], mean (n=3)
Description: The Saccharomyces cerevisiae strain 334 was transformed with the vector pYES2.1-OtD6.1 by electroporation (1500 V). A yeast which was transformed with the blank vector pYES2 was used as control. The transformed yeasts were selected on complete minimal dropout uracil medium (CMdum) agar plates supplemented with 2% glucose. After the selection, in each case three transformants were selected for the further functional expression.
To express the OtD6.1 desaturase, precultures consisting of in each case 5 ml of CMdum dropout uracil liquid medium supplemented with 2% (w/v) raffinose were initially inoculated with the selected transformants and incubated for 2 days at 30° C. and 200 rpm. Then, 5 ml of CMdum (dropout uracil) liquid medium supplemented with 2% raffinose and 300 μM various fatty acids were inoculated with the precultures to an OD600 of 0.05. Expression was induced by the addition of 2% (w/v) galactose. The cultures were incubated for a further 96 hours at 20° C.
The yeast cells from the main cultures were harvested by centrifugation (100×g, 5 min, 20° C.) and washed with 100 mM NaHCO3, pH 8.0 to remove residual medium and fatty acids. The yeast cell sediments were extracted for 4 hours using chloroform/methanol (1:1). The resulting organic phase was extracted with 0.45% NaCl, dried with Na2SO4 and evaporated in vacuo. Applying thin-layer chromatography (horizontal tank, chloroform:methanol:acetic acid 65:35:8), the lipid extract was separated further into the lipid classes phosphatidylcholine (PC), phosphatidylinosotol (PI), phosphatidylserine (PS), phsophatidylethanolamine (PE) and neutral lipids (NL). The various separated spots on the thin-layer plate were scraped off. For the gas-chromatographic analysis, fatty acid methyl esters (FAMEs) were prepared by acid methanolysis. To this end, the cell sediments were incubated for one hour at 80° C. together with 2 ml of 1 N methanolic sulfuric acid and 2% (v/v) dimethoxypropane. The FAMEs were extracted twice with petroleum ether (PE). To remove nonderivatized fatty acids, the organic phases were washed in each case once with 2 ml of 100 mM NaHCO3, pH 8.0 and 2 ml of distilled water. Thereafter, the PE phases were dried with Na2SO4, evaporated under argon and taken up in 100 μl of PE. The samples were separated on a DB-23 capillary column (30 m, 0.25 mm, 0.25 μm, Agilent) in a Hewlett-Packard 6850 gas chromatograph equipped with flame ionization detector. The conditions for the GLC analysis were as follows: the oven temperature was programmed from 50° C. to 250° C. with a 5° C./min increment and finally 10 min at 250° C. (holding).
The signals were identified by comparing the retention times with corresponding fatty acid standards (Sigma). The methodology is described for example in Napier and Michaelson, 2001, Lipids. 36(8):761-766; Sayanova et al., 2001, Journal of Experimental Botany. 52(360):1581-1585, Sperling et al., 2001, Arch. Biochem. Biophys. 388(2):293-298 and Michaelson et al., 1998, FEBS Letters. 439(3):215-218.
The substrate specificity of OtDes6.1 was determined after expression and after feeding various fatty acids. The substrates fed can be detected in large amounts in all of the transgenic yeasts. […]
The yeasts which had been transformed with the vector pYES2-OtDes6.1 were grown in minimal medium in the presence of the stated fatty acids. […] Thereafter, the FAMEs were analyzed via GLC. […] The activity corresponds to the conversion rate calculated using the formula [[…]].

[2] = system: elongase OtElo1 (Δ5-elongase); type: cell-based, Ostreococcus tauri; settings: for Conversion rate (in %): yeast transformed with pOTE1, grown in presence of the fatty acid, FAMEs by GLC, mean (n=3) ± standard deviation
Description: (§1) The Saccharomyces cerevisiae strain 334 was transformed with the vector pOTE1 or pOTE2, respectively, by electroporation (1500 V). A yeast which was transformed with the blank vector pYES2 was used as control. The transformed yeasts were selected on complete minimal dropout uracil medium (CMdum) agar plates supplemented with 2% glucose. After the selection, in each case three transformants were selected for the further functional expression.
To express the Ot elongases, precultures consisting of in each case 5 ml of CMdum dropout uracil liquid medium supplemented with 2% (w/v) raffinose were initially inoculated with the selected transformants and incubated for 2 days at 30° C. and 200 rpm. Then, 5 ml of CMdum (dropout uracil) liquid medium supplemented with 2% raffinose and 300 μM various fatty acids were inoculated with the precultures to an OD600 of 0.05. Expression was induced by the addition of 2% (w/v) galactose. The cultures were incubated for a further 96 hours at 20° C.
The yeast cells from the main cultures were harvested by centrifugation (100×g, 5 min, 20° C.) and washed with 100 mM NaHCO3, pH 8.0 to remove residual medium and fatty acids. Starting with the yeast cell sediments, fatty acid methyl esters (FAMEs) were prepared by acid methanolysis. To this end, the cell sediments were incubated for one hour at 80° C. together with 2 ml of 1 N methanolic sulfuric acid and 2% (v/v) of dimethoxypropane. The FAMEs were extracted twice with petroleum ether (PE). To remove nonderivatized fatty acids, the organic phases were washed in each case once with 2 ml of 100 mM NaHCO3, pH 8.0 and 2 ml of distilled water. […]
The substrate specificity of OtElo1 was determined after expression and after feeding various fatty acids (Tab. 2). The substrates fed can be detected in large amounts in all of the transgenic yeasts. […]
The yeasts which had been transformed with the vector pOTE1 were grown in minimal medium in the presence of the fatty acids stated. […] Thereafter, the FAMEs were analyzed by GLC. […]

OtD6 + PSE1 + PtD5 = assay: Reconstitution of the PUFA biosynthesis in yeast, total fatty acids; type: cell-based; settings: to DHGLA and DHSTA, FIG. 5
Description: The yeast cells from the main cultures were harvested by centrifugation (100×g, 5 min, 20° C.) and washed with 100 mM NaHCO3, pH 8.0 to remove residual medium and fatty acids. The yeast cell sediments were extracted for 4 hours using chloroform/methanol (1:1). The resulting organic phase was extracted with 0.45% NaCl, dried with Na2SO4 and evaporated in vacuo. […] For the gas-chromatographic analysis, fatty acid methyl esters (FAMEs) were prepared by acid methanolysis. To this end, the cell sediments were incubated for one hour at 80° C. together with 2 ml of 1 N methanolic sulfuric acid and 2% (v/v) dimethoxypropane. The FAMEs were extracted twice with petroleum ether (PE). To remove nonderivatized fatty acids, the organic phases were washed in each case once with 2 ml of 100 mM NaHCO3, pH 8.0 and 2 ml of distilled water. Thereafter, the PE phases were dried with Na2SO4, evaporated under argon and taken up in 100 μl of PE. The samples were separated on a DB-23 capillary column (30 m, 0.25 mm, 0.25 μm, Agilent) in a Hewlett-Packard 6850 gas chromatograph equipped with flame ionization detector. The conditions for the GLC analysis were as follows: the oven temperature was programmed from 50° C. to 250° C. with a 5° C./min increment and finally 10 min at 250° C. […]
The parameters measured were the total fatty acids.

[3] = system: elongase OtElo2 (Δ6-elongase); type: cell-based, Ostreococcus tauri
Description: as §1
To express the Ot elongases, precultures consisting of in each case 5 ml of CMdum dropout uracil liquid medium supplemented with 2% (w/v) raffinose were initially inoculated with the selected transformants and incubated for 2 days at 30° C. and 200 rpm. Then, 5 ml of CMdum (dropout uracil) liquid medium supplemented with 2% raffinose and 300 μM various fatty acids were inoculated with the precultures to an OD600 of 0.05. Expression was induced by the addition of 2% (w/v) galactose. The cultures were incubated for a further 96 hours at 20° C. […]
The substrate specificity of OtElo2 (SEQ ID NO: 1) was determined after expression and after feeding various fatty acids (Tab. 3). The substrates fed can be detected in large amounts in all of the transgenic yeasts. […]
The yeasts which had been transformed with the vector pOTE2 were grown in minimal medium in the presence of the fatty acids stated. […] Thereafter, the FAMEs were analyzed by GLC. […]

Structure (SMILES): CCCCCC/C=C\CCCCCCCC(=O)O [16:1^Δ9, palmitoleic acid]
- Activity of OtDes6.1, in words [1]: markedly less pronounced
- Activity in % [1]: 5.6%

Structure (SMILES): CCCCC/C=C\C/C=C\C/C=C\C/C=C\CCCC(=O)O [20:4^Δ5,8,11,14, arachidonic acid]
- Elongation by OtElo1, in words ([2]; Table 2, FIG. 2 and 3): capable of elongating
- Conversion rate (in %) [2]: 10.8 ± 0.6%

Structure (SMILES): CCCCC/C=C\C/C=C\CCCCCCCC(=O)O [18:2^Δ9,12, linoleic acid]
- Activity of OtDes6.1, in words [1]: highest activities
- Activity in % [1]: 68.7%

Structure (SMILES): CC/C=C\C/C=C\C/C=C\C/C=C\CCCCC(=O)O [18:4^Δ6,9,12,15, stearidonic acid]
- Elongation of the OtDes6.1 reaction products in the presence of the Δ6-elongase PSE1 (OtD6 + PSE1 + PtD5): almost quantitatively
- Conversion rate (in %) ([3]; yeast transformed with pOTE2, grown in presence of the fatty acid, FAMEs by GLC, mean (n=3) ± standard deviation): 21.1%

Structure (SMILES): CC/C=C\C/C=C\C/C=C\CCCCCCCC(=O)O [18:3^Δ9,12,15, linolenic acid]
- Activity in % [1]: 64.6%

Structure (SMILES): CCCCC/C=C\C/C=C\C/C=C\CCCCC(=O)O [18:3^Δ6,9,12, γ-linolenic acid]
- Elongation of the OtDes6.1 reaction products in the presence of the Δ6-elongase PSE1 (OtD6 + PSE1 + PtD5): almost quantitatively
- Conversion rate (in %) [3]: 15.3%

Structure (SMILES): CC/C=C\C/C=C\C/C=C\C/C=C\C/C=C\CCCC(=O)O [20:5^Δ5,8,11,14,17, eicosapentaenoic acid]
- Conversion rate (in %) [2]: 46.8 ± 3.6%
